According to patent publication US20210187014A1 (The Regents of the University of Colorado, a body corporate, priority 2018, published 2021):
Square brackets hold non-standard residues; d marks the D form. Peptide text beside a SMILES is read from it. Orn(N5-OH,N5-Ac) = CC(=O)N(O)CCC[C@H](N)C(=O)O

What was measured:
C. elegans [1] = experiment: C. elegans larval growth assay: heat-killed E. coli plus trace live E. coli, worm volume; format: in vivo; details: for worm growth with dietary supplementation: worms fed heat-killed E. coli plus live entA- or entF- mutant E. coli (Ent-deficient food)
From the text: In one embodiment of the inventive technology, the present inventors created a unique assay to facilitate the identification of microbial metabolites that benefit growth and development of host animals. […] This unique feeding condition was used to search for E. coli mutants that fail to support normal worm growth, potentially due to their inability to provide specific metabolites to benefit host animals.
E. coli Keio collection screen. Preparation of heat-killed (HK) OP50 plates followed the procedure described previously (Qi et al., 2017). Standard overnight culture of E. coli OP50 grown in LB broth was concentrated to 1/10 vol and was then heat-killed in a 75° C. water bath for 90 min. The 150 µl of the HK-OP50 was spread onto one side of NGM plate. For preparation of bacterial mutant assay plates, E. coli Keio (Baba et al., 2006) mutants were grown overnight at 37° C. in LB medium with […] kanamycin. 0.2 uL of the bacterial culture (OD600) were seeded to the other side of HK OP50 plate. About 300 synchronized L1 worms were added to the screen plate, and cultured at 20° C., then scored for worm size at day 3 and day 4. The entire library was used for the primary screen; each bacterial mutant was screened once. For the secondary screen, 200 candidate mutants were screened (3 replicates) to confirm the slow growth phenotype.
Chemical supplementation of culture plates. For chemical supplementation, each chemical was dissolved in water or DMSO to generate a stock. The stock solution was added to HK OP50 and then spotted onto NGM plates. […] For CaEDTA supplementation (Kiang et al., 2014), 50 ul of CaEDTA (50 ug/ul) was spread onto the center of the NGM plates seeded with OP50, then different volume of the FeCl3[175 ug/ul] […] Bacterial growth analyses. Overnight cultures were diluted to a final OD600=0.01 in 200 μL of NGM liquid medium. Bacteria were grown in 96-well plates with shaking in a Synergy2 plate reader (BioTek) at 37° C. for 17 h. The OD600 was recorded at 20 min intervals.
Analysis of larval growth by measuring worm size. Synchronized L1 worms were seeded on the indicated NGM plate and grew to the indicated times. Photos were taken and worms volume in each photo were measured by WormSizer software (Moore et al., 2013).

MEL cells = experiment: Erythroid differentiation of MEL cells (color change of cell pellets); format: cell-based, murine; details: equimolar supplementation
Method: FIG. 27. Ferric Enterobactin supplementation benefits differentiation of erythroid progenitor cells (MEL) to red blood cells. (FIG. 27A) MEL cells were grown with the indicated treatments. Cell pellets are shown. (FIG. 27B) Quantification of MEL color change presented as the average intensity of each cell pellet, normalized to the intensity of the control. Error bars are the standard deviation of three technical replicates.
MEL cells are murine erythroid progenitor cells that are arrested at the proerythroblast stage. In the laboratory, these cells are induced to undergo erythroid differentiation to red blood cells by addition of various chemicals (e.g. 2% DMSO) (Friend, 1971). Erythroid differentiation is an iron-dependent process that results in a color change in the differentiated cells. The present inventors tested if addition of Fe-Ent would positively impact the differentiation of wild-type MEL cells to red blood cells.

[2] = system: C. elegans smf-3/DMT1 mutant; experiment: Growth of iron-deficient C. elegans smf-3/DMT1(-) mutant with iron chelator 2,2'-bipyridyl; format: in vivo
Method: FIG. 26. […] All tests were done on a smf-3/DMT1(-) mutant strain in a culture media where an iron chelator (2,2′-bipyridyl) was added to reduce the environmental iron level (FIG. 26A). […] This growth delay was rescued by supplementation with Ent, scored as the percentage of the population at the indicated growth stage. […] The entP,fepA: E. coli mutant cannot synthesize or utilize Enterobactin.
SMF-3/DMT1 is a conserved divalent metal transporter that transports iron into intestinal cells. The smf-3/DMT1 mutant has been established as an iron deficiency model in C. elegans. These mutants have defective iron uptake that results in iron deficiency (Romney et al 2011) and delayed growth under iron-poor growth conditions created by addition of an iron chelator (2,2′-bipyridyl) to the culture media (Raj an et al 2019).
To determine if the Enterobactin supplementation was benefiting the worm directly or benefiting the worm through an E. coli-dependent mechanism, the test was repeated using an E. coli double mutant that cannot synthesize or utilize Ent (entP,fepk).

[3] = Stability by NGAL fluorescence assay; format: physicochemical; details: same concentration and buffers, room temp, light
From the text: FIG. 25. […] Degradation is indicated by increased absorbance. […] Degradation is indicated by increased relative fluorescence. […] For all tests, dilutions were kept at room temp and exposed to light. Error is standard deviation of the mean.

C. elegans [4] = experiment: Iron level in live worms by calcein-AM staining (and pftn-2::GFP reporter); format: in vivo
Method: The present inventors employed the commonly used fluorescent cell-permeable dye, calcein AM, of which emission is quenched by iron binding, and applied it to live worms as previously described to estimate the overall iron level in the host.
Live imaging of iron in worms was done as previously described (James et al., 2015). Briefly, worms were collected at different culture conditions, then co-cultured in M9 with 0.05 ug/ML calcein-AM (Invitrogen) for 1 h, then washed 3 times in 1 ml M9. Samples were then mounted for fluorescence microscopy.
For calcein-AM staining, the original images taken with GFP channel were used to measure the intensity. The value of staining intensity was determined by subtracting the background intensity from the calcein-AM stained intestine.

C. elegans [5] = experiment: Siderophore toxicity test: worm growth and mitochondrial morphology (mtGFP); format: in vivo; details: for defects in growth or mitochondrial morphology: solid medium, worms fed wild-type E. coli
From the text: FIG. 8. Bacterial enterobactin promotes C. elegans development. […] (8E) The entA- and entF-mutant E. coli strains colonized the host gut as efficiently as the parental wild-type strain. (FIG. 8F) Cartoon diagram of feeding condition, microscope images and bar graph showing that neither pyoverdine nor ferrichrome caused obvious growth defects in worms fed heat-killed food plus wild-type, live E. coli. (FIG. 8G) Fluorescence microscopy of worms containing mtGFP under the same feeding condition as in (FIG. 8F). […] “n” =number of worms scored. Data are represented as mean±SEM. ***P<0.0001.

For O=C(O)c1cccc(O)c1O [2,3-DHBA, 2,3-dihydroxybenzoic acid], the “worm growth with dietary supplementation” value (C. elegans [1]) was “rescued worm growth on entA- but not entF-E. coli”.

In the case of O=C(N[C@H]1COC(=O)[C@@H](NC(=O)c2cccc([O-])c2[O-])COC(=O)[C@@H](NC(=O)c2cccc([O-])c2[O-])COC1=O)c1cccc([O-])c1[O-].[Fe+3] [Fe-Ent, ferric enterobactin], the “MEL differentiation to red blood cells” value (MEL cells) is reported as “increase in MEL differentiation, and this increase was better than supplementation with equimolar FeCl3 alone”, the “growth of smf-3(-) mutants” value ([2]; E. coli double mutant that cannot synthesize or utilize Ent) is reported as “independent of E. coli” and the “growth of smf-3(-) mutants” value ([2]; iron chelator 2,2'-bipyridyl in media) is reported as “faster and to a greater extent than observed for Enterobactin or FeCl3 supplementation alone”. For the same compound, the “stability of Ent versus Fe-Ent” value [3] was “more stable than Ent alone”.

For [Cl][Fe]([Cl])[Cl] [FeCl3, ferric chloride, reference compound], the cellular iron level (C. elegans [4]; animals fed Ent-deficient food) was “nor raised cellular iron level”, the “iron level and growth rate defects” value (C. elegans [4]; iron-deficient condition, worms treated with CaEDTA) was “both defects were suppressed” and the worm growth (C. elegans [1]; ferric chloride added to live wild-type E. coli, with heat-killed E. coli) was “worm growth defect”. For the same compound, the “worm growth with dietary supplementation” value (C. elegans [1]) was “neither suppressed the growth defect”.

With CC(=O)N([O-])CCC[C@@H]1NC(=O)CNC(=O)CNC(=O)CNC(=O)[C@H](CCCN([O-])C(C)=O)NC(=O)[C@H](CCCN([O-])C(C)=O)NC1=O.[Fe+3] [ferrichrome] (cyclo(GGG[Orn(N5-OH,N5-Ac)][Orn(N5-OH,N5-Ac)][Orn(N5-OH,N5-Ac)])) the “defects in growth or mitochondrial morphology” value (C. elegans [5]) was “no obvious defects” and the “worm growth with dietary supplementation” value (C. elegans [1]) was “failed to generate a similar impact on worm growth”.

With hemin the “worm growth with dietary supplementation” value (C. elegans [1]) was “did not impact animal growth”.

For pyoverdine, the “mitochondrial morphology (mtGFP)” value (C. elegans [5]; liquid culture) was “toxic to worms as it damages host mitochondria”, the “defects in growth or mitochondrial morphology” value (C. elegans [5]) was “no obvious defects” and the “worm growth with dietary supplementation” value (C. elegans [1]) was “failed to generate a similar impact on worm growth”.
